Measurements taken from PMC9694197, “Undescribed Metabolites from an Actinobacteria Acrocarpospora punica and Their Anti-Inflammatory Activity” (Molecules, 2022).
Entries after “also recorded” stand apart in the source; their conditions may differ. Like-named read-outs stand apart in the source and are kept apart here.

Legend:
Type in all cases: cell-based, mouse
[1] = system: iNOS gene (mRNA expression); experiment: RT-PCR of iNOS mRNA expression after LPS treatment
Description: (§1) The six isolates, in sufficient amounts, were evaluated by examining their inhibitory effects on LPS-induced inducible nitric oxide synthase (iNOS)-dependent NO production in the murine macrophage cell line RAW 264.7 (Table 5). […] (e) Compounds 3 and 6 belong to liner azaphilone skeleton and naphthenic derivatives, respectively; compound 3 has better anti-inflammatory activity than 6. […] (g) The cytotoxic effects were measured using an MTT assay.
The ImProm-II Reverse Transcription System (Promega) was used to take 1 μg of the extracted total RNA, to which was added 1 μL of Oligo(dT)15 Primer, and other supplements with DEPS water. At this time, the total volume was 5 μL. The reaction was immediately placed on ice for at least 5 min, and then 5 × buffer 4 μL, MgCl2 (25 mM) 1.2 μL, dNTP Mix (10 mM) 1 μL, RNasin Ribonuclease Inhibitor 0.5 μL, ImProm-II reverse transcriptase 1 μL and DEPC H2O 6.8 μL was added; the cDNA product was obtained after the reactions of 25 °C, 5 min; 42 °C, 1 h; and 70 °C, 15 min. At the same time, a negative control group was made without reverse transcriptase to confirm whether there was DNA contamination. The obtained cDNA product was then amplified by a PCR reaction to amplify the predicted fragment.
Using the ABI PRISM 7700 Sequence Detection System, the cDNA product was assayed for iNOS, TNF-α, IL-6 and β-actin (internal standard) in a total reaction volume of 20 μL, including 2 × IQ2 SYBR Green Fast qPCR Master Mix (2X) 10 μL, 10 μM of 5′ and 3′ primers 1 μL each. The cDNA template 1 μL reaction conditions were 95 °C, 2 min, 1 cycle; 95 °C, 5 s; and 60 °C, 30 s, 40 cycles. The primers of the PCR reaction were: sense strand iNOS, 5′-GGAGTGACGGCAAACATGACT-3′; anti-sense strand iNOS, 5′-TCGATGCACAACTGGGTGAAC-3′; sense strand IL-6, 5′-CAGAGTCCTTCAGAGAGATACAG-3′; anti-sense strand IL-6, 5′-GATGAATTGGATGGTCTTGGTCC-3′; sense strand TNF-α, 5′-CAGACCCTCACACTCAGATC-3′; anti-sense strand TNF-α, 5′-CTTTGAGATCCATGCCGTTG-3′; sense strand β-actin, 5′-GGCTGTATTCCCCTCCATCG-3′; and anti-sense strand β-actin, 5′-CCAGTTGGTAACAATGCCATGT-3′.

[2] = system: RAW 264.7 cells; experiment: Cell viability, MTT assay; settings: RAW 264.7, MTT assay, with 1 μg/mL LPS, 20 h; mean ± S.E.M.
Description: as §1
(§2) Mouse macrophage cell line (RAW 264.7) was obtained from the Bioresource Collection and Research Center (BCRC 60001) and cultured at 37 °C in Dulbecco’s Modified Eagle’s Medium (DMEM) supplemented with 10% fetal bovine serum (Gibco), 4.5 g/L glucose, 4 mM glutamine, penicillin (100 units/mL), and streptomycin (100 μg/mL) in a humidified atmosphere in a 5% CO2 incubator. The cells were treated with 10, 25, 50 μM natural products in the presence of 1 μg/mL LPS (lipopolysaccharide, Sigma-Aldrich) for 20 h. The concentration of NO in culture supernatants was determined as nitrite, a major stable product of NO, by a Griess reagent assay, and the cell viabilities were determined using the MTT assay as described previously.

[3] = Cell viability, MTT assay; settings: mouse, RAW 264.7 macrophage cells; RAW 264.7, MTT assay
Description: as §1, §2

[4] = system: LPS-induced NO production in RAW 264.7 murine macrophages; experiment: LPS-induced iNOS-dependent NO production (nitrite, Griess reagent assay); settings: for IC50: read-out: IC50, NO generation; for NO inhibitory activity compared to quercetin: ratio to the positive control quercetin, RAW 264.7, LPS; for NO inhibitory activity (in words): RAW 264.7, LPS-stimulated
Description: as §1, §2

[5] = RAW 264.7 murine macrophages, 1 μg/mL LPS, 20 h, mean ± S.E.M. of three independent experiments
[6] = Mus musculus, RAW264.7, 20 h, RAW 264.7 murine macrophages, 1 μg/mL LPS, 20 h, mean ± S.E.M. of three independent experiments

Compound	Effect on LPS-increased iNOS mRNA expression [1]	Cell Viability (% Control) [2] [% Control]	viability at 20 h [3] [%]	IC50 ([4]; RAW 264.7 murine macrophages, 1 μg/mL LPS, 20 h, mean ± S.E.M. of three independent experiments, listed as 3) [µM]	IC50 [4, 5] [µM]	NO inhibitory activity compared to quercetin [4]	IC50 [4, 6] [µM]	IC50 ([4]; RAW 264.7 murine macrophages, 1 μg/mL LPS, 20 h, mean ± S.E.M. of three independent experiments, listed as 2) [µM]	IC50 ([4]; Mus musculus, RAW264.7, 20 h) [µM]	NO inhibitory activity (in words) [4]
C/C=C/c1cc2cc3c(c(=O)c-2co1)C(=O)OC3C (centres unmarked) [Acrocarpunicain C (3), (E)-1-methyl-7-(prop-1-en-1-yl)-3H-furo [3,4-g]isochromene-3,4(1H)-dione]	inhibited this increase in a concentration-dependent manner; also recorded: significantly inhibited	92.7 ± 4.1	> 90	≤ 27.2	5.15 ± 0.18	~7 fold	–	–	–	–
O=c1c(O)c(-c2ccc(O)c(O)c2)oc2cc(O)cc(O)c12 [Quercetin, reference compound]	–	95.9 ± 1.3	–	–	–	–	36 ± 2.34	–	–	–
CC=CC1=CC2=CC3=C(C(=O)CCCCC)C(=O)OC3(C)C(=O)C2=CN1CC (centres unmarked) [Acrocarpunicain A (1), acrocarpunicain A]	inhibited this increase in a concentration-dependent manner; also recorded: significantly inhibited	100 ± 15.5	> 90	–	–	about 4 fold	–	–	–	–
CC=CC1=CC2=CC3=C(C(=O)CCCCCCC)C(=O)OC3(C)C(=O)C2=CN1CC (centres unmarked) [Acrocarpunicain B (2), acrocarpunicain B]	inhibited this increase in a concentration-dependent manner; also recorded: significantly inhibited	95.5 ± 4.2	> 90	–	10.1 ± 0.47	~3 fold	–	≤ 27.2	–	–
CCC(CCC(C)C1CCC2C3CC=C4CC(OC(=O)C=Cc5cc(O)c(OC)c(O)c5)CCC4(C)C3CCC12C)C(C)C (stereo not drawn) [Acrocarpunicain E (5), β-sitosteryl trans-3-hydroxyisoferulate]	–	–	–	–	–	–	–	–	67.4 ± 4.09	no NO inhibitory activity
COc1cc2ccc3c(c2cc1C(C)C)CCCC3(C)C [Acrocarpunicain F (6), 6-isopropyl-7-methoxy-1,1-dimethyl-1,2,3,4-tetrahydrophenanthrene]	inhibited this increase in a concentration-dependent manner; also recorded: significantly inhibited	91.3 ± 7.1	> 90	–	27.2 ± 1.87	~1.2 fold	≤ 27.2	–	–	–
CC=CC1=C(C)C(=O)C2(C)OC(=O)C(C(=O)CCCCC)C2C1 (centres unmarked) [Acrocarpunicain D (4), acrocarpunicain D]	–	62.2 ± 3.2	–	–	–	–	41.7 ± 3.02	–	–	weak NO inhibitory activity
